In patent publication US20130189351A1, “LIPIDS SUITABLE FOR LIPOSOMAL DELIVERY OF PROTEIN CODING RNA” (priority 2010, published 2013):

Assay: physchem
Procedure: The pKa of a lipid is the pH at which 50% of the lipids are charged, lying halfway between the point where the lipids are completely charged and the point where the lipids are completely uncharged.
The pKa of a lipid is measured in water at standard temperature and pressure using the following technique: • 2 mM solution of lipid in ethanol is prepared by weighing the lipid and dissolving in ethanol. 0.3 mM solution of fluorescent probe toluene nitrosulphonic acid (TNS) in ethanol:methanol 9:1 is prepared by first making 3 mM solution of TNS in methanol and then diluting to 0.3 mM with ethanol. • An aqueous buffer containing sodium phosphate, sodium citrate sodium acetate and sodium chloride, at the concentrations 20 mM, 25 mM, 20 mM and 150 mM, respectively, is prepared. The buffer is split into eight parts and the pH adjusted either with 12N HCl or 6N NaOH to 4.44-4.52, 5.27, 6.15-6.21, 6.57, 7.10-7.20, 7.72-7.80, 8.27-8.33 and 10.47-11.12. 400 uL of 2 mM lipid solution and 800 uL of 0.3 mM TNS solution are mixed. • 7.5 μL of probe/lipid mix are added to 242.5 μL of buffer in a 1 mL 96 well plate. This is done with all eight buffers. […]

SMILES | pKa
CCCCC/C=C\C/C=C\CCCCCCCCOCC(CN1CCC(C)(C)C1)OCCOCCO[C@H]1CC[C@@]2(C)C(=CC[C@H]3[C@@H]4CC[C@H]([C@H](C)CCCC(C)C)[C@@]4(C)CC[C@@H]32)C1 (some centres unmarked) [RV05] | 5.85
CCCCC/C=C\C/C=C\CCCCCCCCOCC(CN1CCCC1C)OCCOCCOCCNC(=O)CCC(=O)O[C@H]1CC[C@@]2(C)C(=CC[C@H]3[C@@H]4CC[C@H]([C@H](C)CCCC(C)C)[C@@]4(C)CC[C@@H]32)C1 (some centres unmarked) [RV10] | 7.86
